This note sets out measurements from patent EP2558096B1, “COMBINATION OF HYPOXIA-INDUCIBLE FACTOR-1 INHIBITORS AND TOLL-LIKE RECEPTOR-3 AGONISTS FOR TREATING SOLID TUMORS” (Università degli Studi di Roma "La Sapienza", priority 2010, dated 2011).

Where two headings read alike, the source gives them in different places. *1 amine or outer side, *2 acyl side, *3 side chain or, on linkers, in order; H or OH if unused. Where a SMILES comes first, the peptide text is derived from it. Bridges are numbered along the chain shown (N, C = ends). Roman numbers before positions name the chains, in order. [ ]: non-standard residue; d: D form. The star is where a group is joined. Actinocin(9to1) = Cc1c2oc3c(C)ccc(C(=O)[*:1])c3nc-2c(C(=O)[*:2])c(N)c1=O; NMeV = CN[C@H](C(=O)O)C(C)C; Cbz = O=C(OCc1ccccc1)*; Sar = CNCC(=O)O

The subject of this test is HIF-1α. The test is described as follows: Western blot of HIF-1α protein in PC3 cells (whole cell and nuclear extracts). Format: cell-based, human. Here is the method: LNCaP and PC3 prostate cancer cells were purchased from ATCC and were grown in DME medium supplemented with 2 mM L-glutamine, 100 IU/ml penicillin-streptomycin and 10% FCS (Sigma-Aldrich, St Louis, MO). For all the experiments, prostate cancer cell lines were serum starved for 18 h and then stimulated with poly(I:C) (InvivoGen, San Diego) in FCS-free medium. Human Umbilical Vein Endothelial Cells (HUVEC) were maintained in EGM®-2 complete medium (Lonza, Basel, Switzerland). Actinomycin D, cycloheximide and CoCl2 were from Sigma. MG-132 was from Calbiochem-Merk (Damstadt, Germany).
Cell lysates were prepared in cell lysis buffer (Cell Signaling, Danvers, MA). Equal amounts of proteins (40 µg) were subjected to SDS-polyacrylamide gel electrophoresis and transferred onto a nitrocellulose membrane saturated with 5% non-fat dry milk in Tris-buffered saline with 0.1% Tween-20 (T-TBS). Membranes were incubated with primary antibody and subsequently with horseradish peroxidase-conjugated (HRP) secondary antibody for 1 h at room temperature. Membranes were washed with T-TBS and developed using the chemiluminescence system (ECL; Amersham Bioscience, Piscataway, NJ). Antibody anti-HIF-1α was from BD biosciences (San Diego, CA), cleaved caspase-3 (Asp175) from Cell Signalling (Danvers, MA) and anti-β actin from Sigma. Secondary antibodies were HRP-conjugated goat anti-mouse or anti-rabbit (Bio-Rad, Hercules, CA). To perform Western blot of nuclear extracts, cells were washed in ice-cold PBS, scraped and collected in buffer A (10 mM Tris, pH 7.8, 1.5 Mm MgC12, and 10 mM KCl), and kept on ice for 10 min. before Dounce homogenization. Nuclei were then pelleted at 1000 g for 7 min. at 4°C, re-suspended in 150 µl ice-cold lysis buffer and incubated for 30 min. on ice in the presence of proteases inhibitor cocktail (Sigma) then stored at -80°C. Protein concentration was determined by the micro bicinchoninic acid (BCA) method (Pierce, Rockford, IL).
One day after plating (1 x 10^5 cells/ml), cells were transiently transfected with 1 µg of a plasmid encoding 1.3 isoform of hif-1α [6] or relative control plasmid (pcDNA3) or with 1 µg of a plasmid containing an interfering sequence targeting hif-1α (int.HIF-1α) or the relative control (int. scramble) previously described. Cells were transfected for 5 h with lipofectamine LTX/plus (Invitrogen, Carlsbad, CA) according to the manufacturer's protocol. Challenge with poly(I:C) was performed 18 h later.
To obtain stably transfected PC3 cells with non-functional TLR3, cells were transfected with 1 µg TLR3-dominant negative plasmid (TLR3-DN) (pZERO-hTLR3, Invivogen) or with 1 µg plasmid containing only the resistance to puromycin (pPURO), using lipofectamine LTX/plus as described above. 48 h later, the cells were trypsinized, and seeded at different dilutions onto 100-mm plates in complete DMEM supplemented with 2 µg/ml puromycin (Invivogen). After incubation at 37°C for 2 to 3 weeks, individual colonies were isolated using sterile cloning rings, trypsinized and plated onto 12-well plates. The clones obtained were expanded and maintained in DMEM supplemented with 2 µg/ml puromycin.
A general note: In western blotting, separated proteins are transferred to a membrane and probed.

For `Cc1c2oc3c(C)ccc(C(=O)N[C@@H]4C(=O)N[C@H](C(C)C)C(=O)N5CCC[C@H]5C(=O)N(C)CC(=O)N(C)[C@@H](C(C)C)C(=O)O[C@@H]4C)c3nc-2c(C(=O)N[C@@H]2C(=O)N[C@H](C(C)C)C(=O)N3CCC[C@H]3C(=O)N(C)CC(=O)N(C)[C@@H](C(C)C)C(=O)O[C@@H]2C)c(N)c1=O` [Act D, actinomycin D] (I: T[dV]P[Sar][NMeV] / II: T[dV]P[Sar][NMeV]; ester I:1-I:C, II:1-II:C; linker I:N-II:N via Actinocin(9to1)), where the note is “PC3 cells, 100 µM CoCl2 3 h, Fig. 2B upper”, the “effect on HIF-1α protein accumulation in cells treated with CoCl2” value is listed as “did not inhibit”. Further, under “PC3 cells, poly(I:C) 5 µg/ml about 6 h, inhibitor for 15 min (CHX 100 µg/ml, Act D 2 µg/ml), Fig. 2B upper”, the “effect on poly(I:C)-dependent HIF-1α protein induction” value is on record as “completely abolished”.

As for `C[C@@H]1C[C@@H]([C@H](O)CC2CC(=O)NC(=O)C2)C(=O)[C@@H](C)C1` [CHX, cycloheximide], the “effect on HIF-1α increase by CoCl2 combined with MG-132” value was “not significantly inhibited”, the “effect on HIF-1α increase by poly(I:C) in MG-132-treated cells” value is on record as “reverted the increase to the level of MG-132 alone”, the “effect on HIF-1α protein accumulation in cells treated with CoCl2” value is reported as “did not inhibit” and the “effect on poly(I:C)-dependent HIF-1α protein induction” value is recorded as “completely abolished”.

With `CC(C)C[C@@H](C=O)NC(=O)[C@H](CC(C)C)NC(=O)[C@H](CC(C)C)NC(=O)OCc1ccccc1` [MG-132] (Cbz-Leu-Leu-Leu-aldehyde), where the note is “PC3 cells, 5 µg/ml MG-132, 3 h, Fig. 2B lower”, the “level of HIF-1α in the absence of poly(I:C)” value is given as “induced an increase”. The “HIF-1α compared to CoCl2 alone” value (PC3 cells, CoCl2 combined with MG-132, Fig. 2B lower) was “greater increment”.
